According to patent US10738067B2, “Inhibitors of cyclin-dependent kinase 7 (CDK7)” (Syros Pharmaceuticals, Inc., priority 2018, dated 2020):

Assays:
[1] = tested on: palbociclib and fulvestrant double-resistant ER+BC PDX model (ST941); assay: Tumor growth inhibition in palbociclib and fulvestrant double-resistant ER+BC PDX model ST941; type: in vivo, Mice; conditions: fulvestrant 2.5 mg/kg once weekly SC; for anti-tumor activity (in words): palbociclib 50 mpk QD PO
Protocol: (§1) Tumor growth inhibition was evaluated in estrogen receptor-positive breast cancer (ER+BC) PDX models selected in vivo for resistance to the CDK4/6 inhibitor palbociclib (ST1799, n=1) or resistance to both palbociclib and fulvestrant (ST941, n=1). Dosing was initiated when tumors were 100-200 mm^3.

[2] = tested on: palbociclib-resistant ER+BC PDX (ST1799); assay: Tumor growth inhibition in palbociclib-resistant ER+BC PDX model ST1799; type: in vivo, Mice; conditions: last day of 28 days dosing, Compound 101 6 mg/kg QD PO, fulvestrant 2.5 mg/kg once weekly SC, palbociclib 50 mpk QD PO
Protocol: as §1

[3] = tested on: HCC70 cells; assay: HCC70 cell proliferation assay (CyQUANT Direct, 72 hours); type: cell-based; conditions: Homo sapiens, inhibition of proliferation
Protocol: The HCC70 cell line was derived from human TNBC, and we tested representative compounds of the invention, at different concentrations (from 4 μM to 126.4 pM; 0.5 log serial dilutions), for their ability to inhibit the proliferation of those cells. More specifically, we tested the same compounds tested above for CDK7 selectivity (the structures of which are shown in FIG. 1), and we used the known CDK inhibitors dinaciclib (or […]) and triptolide as positive controls. The cells were grown in ATCC-formulated RPMI-1640 medium (ATCC 30-2001) supplemented with 10% fetal bovine serum (FBS), at 37° C. in a humidified chamber in the presence of 5% CO2. We conducted proliferation assays over a 72-hour time period using a CyQUANT® Direct Cell Proliferation Assay (Life Technologies, Chicago, Ill. USA) according to the manufacturer's directions and utilizing the reagents supplied with the kit.

[4] = in vivo; conditions: NOD/SCID, mouse, oral
Protocol: (§2) In the TNBC model, Compound 101 was orally administered to tumor-bearing NOD/SCID mice at 10 mg/kg QD or 5 mg/kg BID for 21 days. In the SCLC and HGSOC models, Compound 101 was orally administered to tumor-bearing NOD/SCID mice at 3 mg/kg BID for 21 days. In the PDAC model, Compound 101 was orally administered to tumor-bearing NOD/SCID mice at 6 mg/kg QD. In the TNBC, SCLC, and HGSOC models, tumor volume was measured during the treatment period and for an additional 21 days after treatment ceased. […] The % regression was calculated as: (Mean TV Compound 101 @ EOT)/(Mean TV Compound 101 @Day 0)×100. The same calculations were used for end of study (day 42).
(§3) Dosing was initiated when tumors were 150-300 mm^3. Mice were treated with either Compound 101, QD (6 or 10 mg/kg once daily, by mouth) or BID (3 or 5 mg/kg twice daily, by mouth) over the course of 21 days, followed by 21 days of observation. TGI was calculated on the last day of dosing using the formula: TGI=(Vc1−Vt1)/(Vc0−Vt0), where Vc1 and Vt1 are the mean volumes of control and treated groups at the time of tumor extraction, while Vc0 and Vt0 are the same groups at the start of dosing.

[5] = tested on: 12 PDX models representing SCLC, TNBC and HGSOC; assay: Tumor growth inhibition in 12 PDX models (SCLC, TNBC, HGSOC); type: in vivo, Mice
Protocol: We evaluated TGI in 12 different PDX models (Crown Biosciences) in various tumor indications with PDXs representing SCLC (n=5; LU5180, LU5178, LU5192, LU5173, LU5210), TNBC (n=4; BR5010, BR1458, BR5399, BR10014) and HGSOC (n=3; OV15398, OV5392, OV15631). Dosing was initiated when tumors were 150-300 mm^3. […] TGI was calculated on the last day of dosing using the formula: TGI=(Vc1−Vt1)/(Vc0−Vt0), where Vc1 and Vt1 are the mean volumes of control and treated groups at the time of tumor extraction, while Vc0 and Vt0 are the same groups at the start of dosing.

[6] = tested on: ST390 (modeling pancreatic ductal adenocarcinoma (PDAC)); assay: Tumor growth inhibition in PDAC PDX model ST390; type: in vivo, NOD/SCID mice
Protocol: as §2

[7] = tested on: PDX models BR5010 (TNBC), LU5178 (SCLC), OV15398 (HGSOC); assay: Tumor growth inhibition in TNBC, SCLC and HGSOC PDX models; type: in vivo, NOD/SCID mice
[8] = Tolerability in tumor-bearing mice (PDX studies); conditions: all once-daily doses tested
Protocol: as §2, §3

CC(=O)c1c(C)c2cnc(Nc3ccc(N4CCNCC4)cn3)nc2n(C2CCCC2)c1=O [palbociclib]
anti-tumor activity (in words) [1]: no activity
Tumor growth inhibition (TGI) [2]: 21%

C[C@H]1CC[C@H](Nc2ncc(C(F)(F)F)c(-c3c[nH]c4c(P(C)(C)=O)c(C#N)ccc34)n2)CN1 [Compound 100, 7-dimethylphosphoryl-3-[2-[[(3S, 6S)-6-methyl-3-piper-idyl]amino]-5-(trifluoromethyl)pyrimidin-4-yl]-1H-indole-6-carbonitrile]
EC50 [3]: 0.98 nM

CC1(C)CC[C@H](Nc2ncc(C(F)(F)F)c(-c3c[nH]c4c(P(C)(C)=O)c(C#N)ccc34)n2)CN1 [Compound 101, (S)-7-(dimethylphosphoryl)-3-(2-((6,6-dimethylpiperidin-3-yl)amino)-5-(trifluoromethyl)pyrimidin-4-yl)-1H-indole-6-carbonitrile]
MTD at 21 days [4]: > 10 mg/kg
TGI at the end of the 21-day dosing period ([5]; all 12 PDX models, 6 or 10 mg/kg QD or 3 or 5 mg/kg BID, by mouth): at least 50%
tumor regrowth after treatment discontinuation ([5]; subset of models (7/12), 21 days after treatment discontinuation): no evidence of tumor regrowth
TGI of deep responses (TGI or regression) ([5]; subset of models (58%, 7/12)): > 95%
Tumor growth inhibition (TGI) ([1]; last day of 28 days dosing, Compound 101 6 mg/kg QD PO): 33%
Tumor growth inhibition (TGI) ([6]; 6 mg/kg QD PO, over ~28 days, sub-MTD dose): 100%
tumor volume ([6]; day 21, 6 mg/kg QD, PO): about 250 mm^3
TGI (in words) ([7]; TNBC 10 mg/kg QD or 5 mg/kg BID, SCLC and HGSOC 3 mg/kg BID, oral, 21 days, plus 21 days observation): deep and sustained TGI, including regressions
transcriptional responses in xenograft tissue ([7]; observed within 4 hours of dosing, sustained for 24 hours): Dose-dependent transcriptional responses
EC50 [3]: 5.6 nM
body weight loss (tolerability) [8]: no evident body weight loss
Tumor growth inhibition (TGI) [2]: 83%

C[C@]12CC[C@@H]3c4ccc(O)cc4C[C@@H](CCCCCCCCC[S+]([O-])CCCC(F)(F)C(F)(F)F)[C@H]3[C@@H]1CC[C@@H]2O (stereo partly drawn) [fulvestrant]
anti-tumor activity (in words) [1]: no activity
Tumor growth inhibition (TGI) [2]: 60%

CC1(C)CNC[C@@H](Nc2ncc(C(F)(F)F)c(-c3c[nH]c4c(P(C)(C)=O)c(C#N)ccc34)n2)C1 [Compound 102, (S)-7-(dimethylphosphoryl)-3-(2-((5,5-dimethylpiperidin-3-yl)amino)-5-(trifluoromethyl)pyrimidin-4-yl)-1H-indole-6-carbonitrile]
EC50 [3]: 2.1 nM
